What was measured:
[1] = tested on: mDCs treated with 14-DHE co-cultured with OVA-specific naive CD4+ T cells; experiment: Antigen-specific Treg-inducing capacity of DCs treated with 14-DHE (Example 10); assay type: cell-based, mouse
Description: Various DCs were prepared similarly to (A). Next, naive CD4^+ T cells were sorted from DO11.10 mice (Charles River) having OVA-specific TCR, DCs were mixed with the sorted cells at DC:CD4^+ T=1:10 (the number of cells), and then the cells were co-cultured. At this time, the medium was supplemented with 0.5 ng/mL TGF-β1 and 0.1 μM OVA323-339 peptide and then culture was performed for 5 days. Subsequently, Treg generation efficiency was determined as in (A) above.
In a manner similar to that in Example 5, the Treg-inducing activity of mDCs treated with 14-DHE was measured. Similar measurement was also performed using DCs not treated with 14-DHE as a control.

[2] = tested on: mDCs (CD11b+CD11c+B220-) of EAE mice; experiment: EAE model, day 11 autopsy: mDC activation markers; assay type: in vivo, mouse; conditions: autopsy on day 11
Description: On day 0, the 35-55 peptide (MOG35-55, Operon), a glycoprotein of myelin oligodendroglial cells, as an antigen was mixed with complete Freund's adjuvant (CFA, Difco) and then the mixture was subcutaneously administered at a dose of 200 μg/animal. Subsequently, pertussis toxin (Wako Pure Chemical Industries, Japan) was intraperitoneally administered at a dose of 200 ng/animal on day 1 and day 3, thereby inducing the onset of multiple sclerosis. During days 7 to 18, 14-DHE was intraperitoneally administered at a dose of 10 μg/animal once a day. To the vehicle group, the following solvent for 14-DHE was administered: 10% ethanol (Wako Pure Chemical Industries, Japan)/10% Cremophor (Wako Pure Chemical Industries, Japan)/80% PBS (Takara, Japan). Mice were autopsied on day 11 (when inflammation was thought to take place in vivo) to obtain biochemical data. […] A gate was set on mDCs, which are CD11b^+CD11c^+B220^− cells, and I-A/I-E (MHC class II), CD86, and CD80 were measured as activation markers.

[3] = tested on: C57BL/6 mDCs co-cultured with OT-II mouse naive CD4+ T cells; experiment: Cytokine profile of CD4+ T cells induced by DCs treated with 14-DHE, antigen-specific T cell reaction (Example 11); assay type: cell-based; conditions: 0.1 μM OVA323-339 peptide, day 4, vs control mDCs
Description: mDCs were prepared by the method same as that in the MLR experiment. Naive CD4^+ T cells were prepared from OT-II mice (Charles River) in which TCR of CD4^+ T cells is specific for OVA323-339 epitope on the C57BL/6 background. Mixed culture was performed at a ratio of mDC:CD4^+ T cell of 1:5 in the presence of 0.1 μM OVA323-339 peptide. The culture supernatant was recovered on day 4 of culture, and then TNF-α, IFN-γ, IL-6, IL-10, and IL-17 were measured by ELISA.

[4] = tested on: human DCs from peripheral blood CD14-positive cells; experiment: Human regulatory DC-inducing activity of 14-DHE (Example 16); assay type: cell-based; conditions: 14-DHE 1, 3 or 10 μM; ergosterol 10 μM; LPS/IFN-γ or cytokine cocktail 24 h
Description: Mononuclear cells were prepared from human peripheral blood by density-gradient centrifugation using Ficoll-Paque (GE Healthcare, Japan). These cells were subjected to positive selection using anti-human CD14 MACS beads (Miltenyi Biotec), so that CD14-positive cells were obtained. CD14-positive cells were cultured in RPMI1640 media (containing 10% FBS (Invitrogen), 50 μmol/L 2-mercaptoethanol (Wako Pure Chemical Industries, Japan), 50 U/mL penicillin, and 50 μg/mL streptomycin (Gibco) (Sigma Aldrich)) supplemented with recombinant human GM-CSF (800 U/mL, Leukine, Berlex) and recombinant human IL-4 (100 ng/mL, Peprotech). During culture, medium exchange was performed once every 2 days. On day 7 of culture, 14-DHE was added at a concentration of 1 μM, 3 μM, or 10 μM. To a control, 10 μM ergosterol, which was a related substance, was added. Also, to a negative control, 1% ethanol, which was a solvent for 14-DHE, was added. The cells were recovered on day 8 of culture, counted, and then suspended at a density of 3×10^5 cells/mL in the above media. To cell suspensions, 1 μg/mL LPS and 100 ng/mL IFN-γ (both, Sigma Aldrich), or cytokine cocktail (1 μg/mL PGE2 (Sigma Aldrich), 10 ng/mL TNF-α, 2 μg/mL IL-6, and 10 ng/mL IL-1β (3 (all, BD Bioscience)) were added, followed by 24-hour culture. After culture, the cells were stained for CD86, HLA-DR, and CD80. Antibodies used were all produced by BD Bioscience. The gate of DCs was set by FSC and SSC, and the expression levels of these cell surface markers were analyzed.

SMILES: CC(C)[C@@H](C)/C=C/[C@@H](C)[C@H]1CC=C2C3=CC=C4C[C@@H](O)CC[C@]4(C)[C@H]3CC[C@@]21C [Sample 14-DHE, ergosta-5,7,14,22-tetraen-3β-ol]
- generation of Treg compared with the control [1]: about 2 times
- CD80 on mDCs, lymph node [2]: significant decrease
- CD86 on mDCs, lymph node [2]: decreasing trend
- I-A/I-E (MHC class II) on mDCs, lymph node [2]: decreasing trend
- I-A/I-E on mDCs, spinal cord [2]: significant decrease
- IFN-γ production (ELISA) [3]: no statistically significant difference was observed
- IL-6 production (ELISA) [3]: a significant decrease
- IL-10 production (ELISA) [3]: significant increase
- IL-17 production (ELISA) [3]: no statistically significant difference was observed
- TNF-α production (ELISA) [3]: a significant decrease
- expression level of CD80 on human DCs [4]: decreased
- expression level of CD86 on human DCs [4]: decreased
- expression level of MHC class II molecule HLA-DR on human DCs [4]: decreased
